Reference: article PMC9655717, “New Molecules of Diterpene Origin with Inhibitory Properties toward α-Glucosidase” (International Journal of Molecular Sciences, 2022)
In brackets after ≈: the same amount, converted by molar mass.

Tests used:
[1] = molecular target: T1, yeast α-GLy (α-glucosidase, Sigma G0660) (Saccharomyces cerevisiae, UniProt P53341); test: biochemical; type: biochemical; settings: IC50 ± SE, α-glucosidase inhibition, yeast α-glucosidase, 37°C, pH 6.8
T1 construct: purchased Sigma G0660
Description: S1. Materials and Methods […]
glucosidase inhibition assay. α-Glucosidase enzyme inhibition assay was carried out in a 96-well microplate. The method’s principle based on the hydrolyzed reaction of 4-nitrophenyl-α-D-glucopiranoside with α-glucosidase enzyme into yellow 4- […]
p-Nitrophenyl α-D-Glucoside a- Gl ucosidas e α-D-Glucose + p- Nitrophenol α-Glucosidase inhibitory activity assay was performed following the modified method of Pistia Brueggeman and Hollingsworth with slight modification. Quinopimaric […]
concentrations of 256, 64, 16, 4 and 1 µg/mL. In a 96-well plate, a reaction mixture containing 20 μL of phosphate buffer (100 mM; pH 6.8), 20 μL of α-glucosidase (0.3 U/mL, Sigma G0660) (this concentration was determined by a series of α-glucosidase […]
linearity between the enzyme concentration and the absorbance of yellow color mixture after reaction which was approximately 5-fold higher than the back ground and at least […]
concentrations was pre-incubated for 10 min at 37°C. Then 20 μL of […] p-nitrophenyl α-D-glucopyranoside (Sigma N1377) was added to the mixture as a substrate. After further incubation at 37°C for 30 min, the reaction was stopped by adding 80 μL of 0.1 […]
solution were prepared using the phosphate buffer […]; pH 6.8. […]
as a positive control and water as negative control. The yellow color produced was quantitated by colorimetric analysis and reading the absorbance at 410 nm. Each experiment was performed in triplicates, along with appropriate blanks. The solvent DMSO was use as negative control to evaluate its effect on α-glucosidase activity. […]
or substrate in negative control. Back ground was determined by volume of buffer as […]
The % inhibition has been obtained using the formula:
% inhibition = {Absorbance (control) –Absorbance (sample)}/Absorbance (control) IC50 value is defined as the concentration of samples inhibiting 50% of α-glucosidase activity under the stated assay conditions. […]

[2] = DPPH radical scavenging assay; settings: DPPH 0.1 mM in methanol, 25°C, 30 min
Description: DPPH radical scavenging assay as described by Ha. The hydrogen atom donating ability of the plant extractives was determined by the decolorization of methanol solution of 2,2-diphenyl-1-picrylhydrazyl (DPPH). DPPH produces purple color in methanol solution and fades to shades of yellow color in the presence of antioxidants. […]
DPPH (0.1 mM) was diluted in methanol. 200 μL of this solution was added to 1.3 μL of various concentrations of compounds in DMSO (256.0, 64.0, 16.0, and 4.0 μg/mL). The mixture was performed by a 96-well plate at 25 °C in 30 min. Then, absorbance was determined by Epoch™ Microplate Spectrophotometer (at 517 nm). The percentage of DPPH quenching activity was computed by the following formula:
Inhibitory percentage SC (%) = [(Ao - A1)/Ao] × 100. where AO was defined as the absorbance of control reaction, and A1 represented for the absorbance in the presence of test or standard sample. Each experiment was repeated three times. Quercetin was used as a reference compound. […]

[3] = system: Bacillus subtilis (ATCC 6633); test: Antimicrobial broth microdilution; type: cell-based; settings: ATCC6633, B. subtilis
Description: (§1) Table S2. The result of antimicrobial tests of compounds 38, 45, 48 and 50.
(§2) Gram (+) strains Gram (-) strains Fungi
(§3) Compound Values (µg/ml) S. aureus B. L. S. E. P. C. subtilis fermentum enterica coli aeruginosa albican
(§4) The antimicrobial activity was determined by broth microdilution method as reported by. Broth dilution testing is one of the common methods used for determination of the MICs and IC50. The compounds are examined for visible bacterial growth as evidenced by turbidity. […]
(§5) S1.5. In vitro antimicrobial activity study of compounds 38, 45, 48 and 50 The Gram-positive bacteria: Bacillus subtilis (ATCC 6633), Lactobacillus fermentum (N4), Staphylococcus aureus (ATCC 13709); Gram -negative bacteria: Escherichia coli (ATCC 25922), Pseudomonas aeruginosa (ATCC 15442), Salmonella enterica; Yeast: Candida albicans (ATCC 10231) were obtained from American Type Culture Collection. The bacterial […]
(§6) Sabourand 2% dextrose broth, were purchased from Merck. […]
(§7) remaining at –80 0 C. Before assay, they were activated by culture medium and, adjusted the concentration to 5x10^5 CFU/mL. 10 μL of each concentration of each test […]
(§8) further incubated at 37 °C within 16-24h. The experiment was triplicated. Positive […]
(§9) medium without bacteria as a negative control. Ampicillin was used as a reference […]
(§10) inhibiting 50% the visible growth of the tested microorganisms. MIC, IC50 values are typically expressed as molar concentration. […]
(§11) treated with sample different concentrations on 96-well plates. Untreated cells represented the controls. […]
(§12) crystals are visible. Remove MTT and add DMSO solution (100 μL). The optical density […]
(§13) are evaluated to have cytotoxic activity.

[4] = system: Candida albicans (ATCC 10231); test: Antimicrobial broth microdilution; type: cell-based; settings: ATCC10231, C. albican
Description: as §1, §2, §3, §4, §5, §6, §7, §8, §9, §10, §11, §12, §13

[5] = system: Escherichia coli (ATCC 25922); test: Antimicrobial broth microdilution; type: cell-based; settings: ATCC25922, E. coli
Description: as §1, §2, §3, §4, §5, §6, §7, §8, §9, §10, §11, §12, §13

[6] = system: Lactobacillus fermentum (N4); test: Antimicrobial broth microdilution; type: cell-based; settings: L. fermentum
Description: as §1, §2, §3, §4, §5, §6, §7, §8, §9, §10, §11, §12, §13

[7] = system: Pseudomonas aeruginosa (ATCC 15442); test: Antimicrobial broth microdilution; type: cell-based; settings: ATCC15442, P. aeruginosa
Description: as §1, §2, §3, §4, §5, §6, §7, §8, §9, §10, §11, §12, §13

Salmonella enterica = test: Antimicrobial broth microdilution; type: cell-based; settings: S. enterica
Description: as §1, §2, §3, §4, §5, §6, §7, §8, §9, §10, §11, §12, §13

[8] = system: Staphylococcus aureus (ATCC 13709); test: Antimicrobial broth microdilution; type: cell-based; settings: ATCC13709, S. aureus
Description: as §1, §2, §3, §4, §5, §6, §7, §8, §9, §10, §11, §12, §13

MTT cytotoxicity assay = settings: human
Description: The cytotoxic activity of compounds was evaluated against four cancer cell lines KB, Hep-G2, Lu-1 and MCF-7, using colorimetric MTT assay. […]
MTT assay was used to determine the cytotoxic activity of compounds with human cancer cell lines acquired from the American Type Culture Collection (ATCC): epidermoid carcinoma (KB, ATCC number CCL-17), hepatocellular carcinoma (HepG2, ATCC number HB-8065), lung adenocarcinoma LU-1 (ATCC number HTB - 57TM), breast adenocarcinoma MCF-7 (ATCC number HTB - 22TM. Cells were cultured in medium DMEM supplemented with 10% Fetal bovine serum (FBS), 1% Penicillin and Streptomycin and 1% L-glutamine, under a humidified atmosphere of 5% CO2 at 37°C.
Compounds were dissolved in DMSO at 40 mg/mL and a series of dilutions for each compound was prepared to final concentrations of 256, 64, 16, 4 and 1 μg/mL. Cells were separated with trypsin and seeded in each well with 3 x10^4 cells per ml and were treated with sample different concentrations on 96-well plates. Untreated cells represented the controls. After 72h of treatment, an MTT solution (10 μl, 5 mg/mL) of phosphate buffer was added to each well for 4 h until intracellular purple formazan crystals are visible. Remove MTT and add DMSO solution (100 μL). The optical density of the solution was determined by Epoch™ Microplate Spectrophotometer at 540 nm. The inhibition ratio was calculated based on the optical densities from the three replicate […]
as §13

[9] = Hep-G2 hepatocellular carcinoma cells (ATCC HB-8065)
[10] = KB epidermoid carcinoma cells (ATCC CCL-17)
[11] = Lu-1 lung adenocarcinoma cells (ATCC HTB-57)
[12] = MCF-7 breast adenocarcinoma cells (ATCC HTB-22)

T1 sequence (P53341 whole entry): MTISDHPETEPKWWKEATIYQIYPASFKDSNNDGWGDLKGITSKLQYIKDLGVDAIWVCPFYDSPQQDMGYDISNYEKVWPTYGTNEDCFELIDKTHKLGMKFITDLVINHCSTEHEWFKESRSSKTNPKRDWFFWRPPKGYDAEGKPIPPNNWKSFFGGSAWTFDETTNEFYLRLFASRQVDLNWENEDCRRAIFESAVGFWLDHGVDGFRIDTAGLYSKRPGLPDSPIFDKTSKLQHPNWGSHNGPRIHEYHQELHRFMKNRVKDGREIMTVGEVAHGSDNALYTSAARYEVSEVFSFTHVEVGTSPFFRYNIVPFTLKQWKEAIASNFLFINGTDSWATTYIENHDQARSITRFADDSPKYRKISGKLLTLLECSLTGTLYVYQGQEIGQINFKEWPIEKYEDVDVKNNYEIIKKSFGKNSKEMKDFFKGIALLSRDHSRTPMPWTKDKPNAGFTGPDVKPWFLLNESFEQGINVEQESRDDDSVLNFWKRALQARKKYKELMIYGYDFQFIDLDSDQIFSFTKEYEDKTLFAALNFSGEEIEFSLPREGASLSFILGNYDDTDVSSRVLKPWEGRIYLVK

| SMILES | IC50 [1] [nM] | IC50 values, antioxidant test (DPPH) [2] [µg/mL] | IC50 [3] [µg/mL] | MIC [3] [µg/mL] | IC50 [4] [µg/mL] | MIC [4] [µg/mL] | IC50 [5] [µg/mL] | MIC [5] [µg/mL] | IC50 [6] [µg/mL] | MIC [6] [µg/mL] | IC50 [7] [µg/mL] | MIC [7] [µg/mL] | IC50 (Salmonella enterica) [µg/mL] | MIC (Salmonella enterica) [µg/mL] | IC50 [8] [µg/mL] | MIC [8] [µg/mL] | IC50 at 72 h (MTT cytotoxicity assay; [9]) [µg/mL] | IC50 at 72 h (MTT cytotoxicity assay; [10]) [µg/mL] | IC50 at 72 h (MTT cytotoxicity assay; [11]) [µg/mL] | IC50 at 72 h (MTT cytotoxicity assay; [12]) [µg/mL] | other results |
| --- | --- | --- | --- | --- | --- | --- | --- | --- | --- | --- | --- | --- | --- | --- | --- | --- | --- | --- | --- | --- | --- |
| CC(C)C1=CC23CCC4C(C)(C(=O)O)CCCC4(C)C2CC1c1c(OCCC#N)ccc(OCCC#N)c13 (stereo not drawn) [Compound 50, 1,4-Bis(2′-cyanoethoxy)-13-isopropyl-7,10a-dimethyl-6,6a,7,8,9,10,10a,10b,11,12-decahydro-5H-4b,12-ethenochrysene-7-carboxylic acid] | 230 ± 10 | 105.50 ± 2.2 (≈ 204 µM) | 11.3 ± 0.77 (≈ 21.8 µM) | 64 (≈ 124 µM) | > 256 | > 256 | > 256 | > 256 | 116 ± 6.93 (≈ 224 µM) | > 256 | > 256 | > 256 | > 256 | > 256 | 11 ± 0.83 (≈ 21.3 µM) | 64 (≈ 124 µM) | 110 ± 2.6 (≈ 213 µM) | 57.3 ± 1.2 (≈ 111 µM) | 69.8 ± 1.5 (≈ 135 µM) | 158 ± 4 (≈ 305 µM) | melting point: 157 to 159 °C |
| C#CCOC(=O)C1(C)CCCC2(C)C1CCC13C=C(C(C)C)C(CC12)C1=C3C(=O)C=CC1=O (stereo not drawn) [Compound 48, Propynyl 13-isopropyl-7,10a-dimethyl-1,4-di oxo-4,5,6,6a,7,8,9,10,10a,10b,11,12-dodecahydro-1H-4b,12-ethenochrysene-7-carboxylate] | 680 ± 45 | 177.45 ± 3.5 (≈ 397 µM) | 45 ± 2.18 (≈ 101 µM) | 256 (≈ 573 µM) | > 256 | > 256 | > 256 | > 256 | 43.5 ± 2.52 (≈ 97.5 µM) | 256 (≈ 573 µM) | > 256 | > 256 | > 256 | > 256 | 8.29 ± 0.58 (≈ 18.6 µM) | 64 (≈ 143 µM) | 46 ± 0.8 (≈ 103 µM) | 30.5 ± 0.7 (≈ 68.3 µM) | 10.2 ± 0.18 (≈ 22.7 µM) | 39.2 ± 0.78 (≈ 87.9 µM) | melting point: 85 to 89 °C |
